Results reported in ChEMBL document CHEMBL1201862, “PubChem BioAssay data set” (2004).
Active and inactive are the calls of the source.

Tests used:
Insulin-degrading enzyme [1] = target: T1, Insulin-degrading enzyme (Homo sapiens, UniProt P14735); test: activators of endogenous IDE in HEK cells, dose response, cell-based, fluorescence polarization (AID 588439); format: functional
T1 sequence (P14735 whole entry): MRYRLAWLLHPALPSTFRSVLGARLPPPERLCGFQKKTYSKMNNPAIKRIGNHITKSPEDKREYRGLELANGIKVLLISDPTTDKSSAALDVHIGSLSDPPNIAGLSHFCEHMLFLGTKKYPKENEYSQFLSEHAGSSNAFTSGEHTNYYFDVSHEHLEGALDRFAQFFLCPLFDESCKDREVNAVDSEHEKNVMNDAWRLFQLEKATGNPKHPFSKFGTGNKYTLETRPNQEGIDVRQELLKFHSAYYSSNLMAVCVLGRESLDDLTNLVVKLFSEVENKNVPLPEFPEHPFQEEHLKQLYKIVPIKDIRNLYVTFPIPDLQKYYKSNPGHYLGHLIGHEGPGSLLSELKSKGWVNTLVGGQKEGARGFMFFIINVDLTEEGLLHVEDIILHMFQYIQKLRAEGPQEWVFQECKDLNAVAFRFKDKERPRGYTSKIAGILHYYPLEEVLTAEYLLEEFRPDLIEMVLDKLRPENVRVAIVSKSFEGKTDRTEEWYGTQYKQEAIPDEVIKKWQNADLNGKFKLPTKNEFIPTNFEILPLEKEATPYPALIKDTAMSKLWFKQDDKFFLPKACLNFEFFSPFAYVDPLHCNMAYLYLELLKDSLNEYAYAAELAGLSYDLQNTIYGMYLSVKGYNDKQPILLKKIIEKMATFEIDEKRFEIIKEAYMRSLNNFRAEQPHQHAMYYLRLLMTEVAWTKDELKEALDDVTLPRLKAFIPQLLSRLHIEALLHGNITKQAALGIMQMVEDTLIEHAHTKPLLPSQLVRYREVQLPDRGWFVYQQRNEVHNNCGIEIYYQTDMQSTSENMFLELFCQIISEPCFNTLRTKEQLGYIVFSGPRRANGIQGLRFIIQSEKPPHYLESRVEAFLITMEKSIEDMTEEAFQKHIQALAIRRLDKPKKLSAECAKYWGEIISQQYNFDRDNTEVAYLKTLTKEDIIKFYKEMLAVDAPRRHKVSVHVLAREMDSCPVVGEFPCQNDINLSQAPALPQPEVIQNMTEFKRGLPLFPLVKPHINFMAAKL

HEK293 [2] = test: HEK cell cytotoxicity by LDH release, dose response, cytotoxicity control for IDE activator project, fluorescence, HEK cells (AID 588440); format: functional, cell-based; conditions: Homo sapiens;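 note: cytotoxicity by LDH release measuring loss of membrane integrity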
HEK293 [3] = test: optical interference in Abeta FP readout, dose response, artefact control for IDE activator project, biochemical, fluorescence polarization (AID 588442); format: functional, cell-based; conditions: Homo sapiens
Insulin-degrading enzyme [4] = target: T1, Insulin-degrading enzyme; test: activators of recombinant IDE enzyme, dose response, counter-screen for IDE activator project, biochemical, fluorescence polarization (AID 588681)
Cytochrome P450 1A2 = target: T2, Cytochrome P450 1A2 (Homo sapiens, UniProt P05177);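 note: PubChem cytochrome P450 panel assay, CYP1A2 panel member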
T2 sequence (P05177 whole entry): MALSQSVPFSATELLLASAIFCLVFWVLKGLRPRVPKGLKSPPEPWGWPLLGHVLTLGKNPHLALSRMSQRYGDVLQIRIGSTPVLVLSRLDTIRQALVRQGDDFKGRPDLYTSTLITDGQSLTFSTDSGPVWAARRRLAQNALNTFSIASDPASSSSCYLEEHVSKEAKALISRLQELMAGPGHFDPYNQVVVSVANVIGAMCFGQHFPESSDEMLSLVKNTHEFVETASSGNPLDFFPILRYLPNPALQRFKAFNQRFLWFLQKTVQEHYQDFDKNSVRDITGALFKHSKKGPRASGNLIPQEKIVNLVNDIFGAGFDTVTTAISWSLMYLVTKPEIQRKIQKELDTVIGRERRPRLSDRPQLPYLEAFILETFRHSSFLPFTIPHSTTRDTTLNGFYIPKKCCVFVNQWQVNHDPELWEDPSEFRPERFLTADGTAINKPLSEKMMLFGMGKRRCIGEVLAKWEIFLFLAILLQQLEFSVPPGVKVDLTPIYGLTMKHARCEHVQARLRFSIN

Jurkat [5] = test: antigen receptor-induced NF-kB inhibitors, dose response, Jurkat, luciferase reporter, luminescence, B- and T-cell (AID 489004); format: functional, cell-based; conditions: Homo sapiens;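 note: NF-kB luciferase reporter Jurkat cells stimulated with PMA plus ionomycin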
[6] = cytotoxicity in HEK-293T NF-kB-Luc cells, dose response, cytotoxicity control for B/T-cell NF-kB inhibitor project, cell-based, uHTS hits (AID 489019); format: functional;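 note: IC50 reflects cytotoxicity as loss of cell viability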
[7] = target: T3, COUP transcription factor 2 (Homo sapiens, UniProt P24468); test: Luminescence-based cell-based high throughput dose response assay to identify inhibitors of COUP-TFII (NR2F2).; format: functional;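 note: HEK293 cells transiently cotransfected with COUP-TFII expression vector and reporter; luciferase reporter luminescence driven by COUP-TFII from the pX2-168 reporter plasmid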
T3 sequence (P24468 whole entry): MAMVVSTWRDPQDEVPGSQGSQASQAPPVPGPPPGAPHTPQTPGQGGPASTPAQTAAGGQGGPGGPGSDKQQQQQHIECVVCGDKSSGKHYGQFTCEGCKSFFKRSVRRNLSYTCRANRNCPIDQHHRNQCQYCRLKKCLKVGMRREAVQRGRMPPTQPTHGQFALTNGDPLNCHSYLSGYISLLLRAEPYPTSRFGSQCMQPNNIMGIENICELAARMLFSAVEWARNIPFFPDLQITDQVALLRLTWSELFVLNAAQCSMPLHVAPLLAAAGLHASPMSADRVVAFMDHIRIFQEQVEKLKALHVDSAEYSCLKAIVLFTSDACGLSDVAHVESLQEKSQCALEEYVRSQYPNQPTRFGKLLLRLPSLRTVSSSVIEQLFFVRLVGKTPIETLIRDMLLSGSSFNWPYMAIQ

[8] = inhibitors of firefly luciferase expression or activity, dose response, H4 neuroglioma cells, luminescence (AID 1990); format: functional, cell-based
[9] = Luminescence Cell-Based Dose Response HTS to Identify Inhibitors of 5'UTR Stem-Loop Driven Prion Protein mRNA Translation in H4 Neuroglioblastoma Cells. [Related pubchem assays: 1827 (Project Summary), 1813 (Primary HTS)]; format: functional
[10] = target: T4, Heat shock factor protein 1 (Mus musculus, UniProt P38532); test: inhibition of MG132-induced HSE-luciferase signal, confirmation, cell-based, NIH3T3, luminescence, dose retest (AID 2382); format: functional;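 note: NIH3T3 fibroblasts with HSF1-driven luciferase reporter stressed by proteasome inhibitor MG132; luminescence from HSF1-driven luciferase expression after 8 hours of MG132 stress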
T4 sequence (P38532 whole entry): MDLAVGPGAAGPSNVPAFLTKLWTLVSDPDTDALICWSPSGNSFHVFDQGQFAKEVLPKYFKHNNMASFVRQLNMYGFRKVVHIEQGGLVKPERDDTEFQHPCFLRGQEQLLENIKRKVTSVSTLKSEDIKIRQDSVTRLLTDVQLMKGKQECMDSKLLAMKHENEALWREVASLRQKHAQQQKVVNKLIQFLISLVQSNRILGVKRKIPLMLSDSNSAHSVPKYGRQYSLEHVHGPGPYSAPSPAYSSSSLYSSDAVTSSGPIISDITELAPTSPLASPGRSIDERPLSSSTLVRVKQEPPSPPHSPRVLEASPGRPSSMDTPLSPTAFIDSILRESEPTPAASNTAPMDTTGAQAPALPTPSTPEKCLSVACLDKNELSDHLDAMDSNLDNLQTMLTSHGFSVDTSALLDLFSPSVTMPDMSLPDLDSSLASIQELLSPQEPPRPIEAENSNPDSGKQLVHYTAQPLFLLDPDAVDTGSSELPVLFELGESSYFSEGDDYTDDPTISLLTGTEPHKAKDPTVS

[11] = inhibitors of SNCA 5'UTR-driven reporter translation, confirmation, H4 neuroglioma cells, luminescence (AID 1988); format: functional, cell-based
HEK293 [12] = test: cytotoxicity in HEK293T NF-kB-Luc cells, SAR follow-up, cytotoxicity control for NF-kB activator project, cell-based, resazurin fluorescence (AID 493251); format: functional; conditions: Homo sapiens
HEK293 [13] = test: SAR Analysis of small molecule inhibitors of T-cell specific antigen receptor-induced NF-kB activation in a HEK-293T cell line using a luminescence assay - Set 2. [Related pubchem assays (depositor defined):AID435003, AID435012, AID489026]; format: functional, cell-based; conditions: Homo sapiens
Jurkat [14] = test: SAR Analysis of small molecule inhibitors of T-cell specific antigen receptor-induced NF-kB activation in a Jurkat cell line using a luminescence assay - Set 2. [Related pubchem assays (depositor defined):AID435003, AID435012, AID465]; format: functional, cell-based; conditions: Homo sapiens
[15] = target: T5, Orexin/Hypocretin receptor type 1 (Homo sapiens, UniProt O43613); test: Fluorescence-based cell-based high throughput dose response assay for antagonists of the orexin 1 receptor (OX1R; HCRTR1). [Related pubchem assays (depositor defined):AID434989, AID435008, AID463079, AID485270, AID492963, AID492964, AID492965, AID493232, AID504717, AID504718]; format: functional
T5 sequence (O43613 whole entry): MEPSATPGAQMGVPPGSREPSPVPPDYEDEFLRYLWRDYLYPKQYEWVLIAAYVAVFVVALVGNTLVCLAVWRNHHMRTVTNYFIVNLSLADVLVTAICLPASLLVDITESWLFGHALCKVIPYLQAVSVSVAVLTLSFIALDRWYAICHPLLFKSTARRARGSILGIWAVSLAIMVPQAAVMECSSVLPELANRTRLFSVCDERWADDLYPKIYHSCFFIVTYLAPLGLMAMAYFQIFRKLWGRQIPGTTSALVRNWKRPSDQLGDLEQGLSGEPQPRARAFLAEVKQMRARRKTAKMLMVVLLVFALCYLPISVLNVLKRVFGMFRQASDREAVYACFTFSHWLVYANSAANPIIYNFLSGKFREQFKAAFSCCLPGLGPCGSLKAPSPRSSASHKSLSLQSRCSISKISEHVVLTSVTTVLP

[16] = target: T5, Orexin/Hypocretin receptor type 1; test: Homogeneous Time Resolved Fluorescence (HTRF)-based cell-based high throughput dose response assay for antagonists of the orexin 1 receptor (OX1R; HCRTR1). [Related pubchem assays (depositor defined):AID434989, AID435008, AID463079, AID485270, AID492963, AID492964, AID492965, AID493232, AID504717, AID504718]; format: functional
CHO-K1 = test: Counterscreen for antagonists of the orexin 1 receptor (OX1R; HCRTR1): Homogeneous time resolved fluorescence (HTRF)-based cell-based dose response assay to identify antagonists of the parental CHO-K1 cell line. [Related pubchem assays (depositor defined):AID434989, AID435008, AID463079, AID485270, AID492963, AID492964, AID492965, AID493232, AID504699, AID504701]; format: functional; conditions: Cricetulus griseus
Orexin receptor type 2 [17] = target: T6, Orexin receptor type 2 (Homo sapiens, UniProt O43614); test: Counterscreen assay for antagonists of the orexin 1 receptor (OX1R; HCRTR1): Fluorescence-based cell-based dose response assay for antagonists of the orexin 2 receptor (OX2R; HCRTR2), run by assay provider.; format: functional
T6 sequence (O43614 whole entry): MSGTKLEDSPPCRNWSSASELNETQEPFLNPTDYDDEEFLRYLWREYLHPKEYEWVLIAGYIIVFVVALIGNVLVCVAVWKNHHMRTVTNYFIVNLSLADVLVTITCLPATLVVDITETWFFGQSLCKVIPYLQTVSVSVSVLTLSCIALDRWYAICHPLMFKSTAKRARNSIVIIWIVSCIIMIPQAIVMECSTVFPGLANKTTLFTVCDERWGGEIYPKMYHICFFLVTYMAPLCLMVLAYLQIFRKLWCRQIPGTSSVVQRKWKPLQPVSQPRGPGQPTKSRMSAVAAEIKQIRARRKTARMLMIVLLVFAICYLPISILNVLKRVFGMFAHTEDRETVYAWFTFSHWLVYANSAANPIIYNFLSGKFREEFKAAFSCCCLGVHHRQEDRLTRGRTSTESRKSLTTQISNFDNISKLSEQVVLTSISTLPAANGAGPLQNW

Orexin receptor type 2 [18] = target: T6, Orexin receptor type 2; test: Counterscreen assay for antagonists of the orexin 1 receptor (OX1R; HCRTR1): Homogeneous Time Resolved Fluorescence (HTRF)-based cell-based dose response assay for antagonists of the orexin 2 receptor (OX2R; HCRTR2), run by assay provider.; format: functional
[19] = Counterscreen for antagonists of the orexin 1 receptor (OX1R; HCRTR1): Fluorescence-based cell-based high throughput dose response assay to identify antagonists of the parental CHO cell line. [Related pubchem assays (depositor defined):AID434989, AID435008, AID463079, AID485270, AID492963, AID492964, AID492965, AID493232, AID504699, AID504701]; format: functional

## Cc1ccccc1OC/C(O)=C(\C#N)c1nc2ccccc2[nH]1
Insulin-degrading enzyme [1]
  EC50: > 54.7 µM (inactive)
HEK293 [2]
  IC50: > 89.2 µM (inactive)
HEK293 [3]
  EC50: > 54.7 µM (inactive)
Insulin-degrading enzyme [4]
  EC50: > 54.7 µM (inactive)
Cytochrome P450 1A2
  AC50: 0.282 µM (inconclusive)

## COc1ccc(NS(=O)(=O)c2cccc(NC(=O)c3ccc(Cl)nc3)c2)cc1
Jurkat [5]
  IC50: 38.2 µM (inactive)
[6]
  IC50: > 80 µM (inactive)
[7]
  IC50: 3.21 µM (active)

## Cc1ccc(C(=O)Nc2cccc(C(F)(F)F)c2)cc1NC(=O)c1ccno1
[8]
  EC50: < 0.1 µM (active)
[9]
  EC50: 6.47 µM (active)
Jurkat [5]
  IC50: > 80 µM (inactive)
[10]
  EC50: 0.333 µM (active)
[6]
  IC50: > 80 µM (inactive)
[11]
  EC50: 0.285 µM (active)

## CCCCC(=O)NC(c1ccc(C)cc1)c1ccc2cccnc2c1O (stereo not drawn)
HEK293 [12]
  IC50: 26.1 µM (inactive)
HEK293 [13]
  IC50: 2.78 µM (active)
Jurkat [14]
  IC50: 2.65 µM (active)

## N#Cc1cccn1-c1nccc(-c2cccs2)n1
[15]
  IC50: 20.3 µM (inactive)
[16]
  IC50: 3.66 µM (active)
CHO-K1
  IC50: > 66.2 µM (inactive)
Orexin receptor type 2 [17]
  IC50: > 88.8 µM (inactive)
Orexin receptor type 2 [18]
  IC50: > 50 µM (inactive)
[19]
  IC50: > 49.7 µM (inactive)
